Test: solvent given as SMILES

In the case of `CC(=O)c1ccccc1`, the “solvation free energy, 298 K” value (in CCCCCC) was -6.05 kcal/mol, the “solvation free energy, 298 K” value (in CCCCCCCCCCCCCCCC) was -6.04 kcal/mol and the “solvation free energy, 298 K” value (in O) was -4.58 kcal/mol.
For `C=C(C)c1ccccc1`, the “solvation free energy, 298 K” value (in CC(C)=O) was -6.37 kcal/mol and the “solvation free energy, 298 K” value (in O) was -1.28 kcal/mol.
For `CCCCCOC(=O)c1ccccc1C(=O)OCCCCC`, the “solvation free energy, 298 K” value (in O) was -6.96 kcal/mol.
With `CC(=O)CC(C)C` the “solvation free energy, 298 K” value (in C1COCCO1) was -5.32 kcal/mol, the “solvation free energy, 298 K” value (in CC(=O)N(C)C) was -5.24 kcal/mol and the “solvation free energy, 298 K” value (in CCCCCCCC) was -4.34 kcal/mol. The “solvation free energy, 298 K” value (in CCCCN(C=O)CCCC) was -5.03 kcal/mol, the “solvation free energy, 298 K” value (in CCOP(=O)(OCC)OCC) was -4.94 kcal/mol and the “solvation free energy, 298 K” value (in CN1CCCC1=O) was -5.14 kcal/mol. For the same compound, the “solvation free energy, 298 K” value (in CN1CCCCC1=O) was -5.12 kcal/mol, the “solvation free energy, 298 K” value (in CN1CCN(C)C1=O) was -4.91 kcal/mol and the “solvation free energy, 298 K” value (in CNC(C)=O) was -4.82 kcal/mol. The “solvation free energy, 298 K” value (in NC=O) was -4.19 kcal/mol, the “solvation free energy, 298 K” value (in O) was -3.06 kcal/mol and the “solvation free energy, 298 K” value (in O=CN1CCOCC1) was -4.62 kcal/mol. For the same compound, the “solvation free energy, 298 K” value (in OCCOCCO) was -4.21 kcal/mol.
For `CCOP(=S)(OCC)SCSc1ccc(Cl)cc1`, the “solvation free energy, 298 K” value (in O) was -6.5 kcal/mol.
In the case of `CCOC(=O)c1ccccc1O`, the “solvation free energy, 298 K” value (in O) was -3.82 kcal/mol.
For `CC=C(C)C`, the “solvation free energy, 298 K” value (in BrC(Br)C(Br)Br) was -2.68 kcal/mol, the “solvation free energy, 298 K” value (in C1=Cc2ccccc2C1) was -3.05 kcal/mol and the “solvation free energy, 298 K” value (in C=CCCCCCCCCCCCCCC) was -2.97 kcal/mol. For the same compound, the “solvation free energy, 298 K” value (in CC1COC(=O)O1) was -2.09 kcal/mol, the “solvation free energy, 298 K” value (in CC(=O)N(C)C) was -2.58 kcal/mol and the “solvation free energy, 298 K” value (in CC(=O)c1ccccc1) was -2.79 kcal/mol. The “solvation free energy, 298 K” value (in CC(C)(C)O) was -3.22 kcal/mol, the “solvation free energy, 298 K” value (in CCCCC#N) was -2.9 kcal/mol and the “solvation free energy, 298 K” value (in CCCCCC#N) was -2.96 kcal/mol. For the same compound, the “solvation free energy, 298 K” value (in CCNC(C)=O) was -2.69 kcal/mol, the “solvation free energy, 298 K” value (in CN1CCCC1=O) was -2.51 kcal/mol and the “solvation free energy, 298 K” value (in CN(C)C=O) was -2.56 kcal/mol. The “solvation free energy, 298 K” value (in CN(C)P(=O)(N(C)C)N(C)C) was -2.61 kcal/mol, the “solvation free energy, 298 K” value (in CNC(C)=O) was -2.54 kcal/mol and the “solvation free energy, 298 K” value (in CNC=O) was -2.17 kcal/mol. The “solvation free energy, 298 K” value (in CS(C)=O) was -1.97 kcal/mol, the “solvation free energy, 298 K” value (in Cc1cccc2ccccc12) was -2.88 kcal/mol and the “solvation free energy, 298 K” value (in Cc1cccc(O)c1) was -2.63 kcal/mol. The “solvation free energy, 298 K” value (in ClC(Cl)C(Cl)Cl) was -3.16 kcal/mol, the “solvation free energy, 298 K” value (in Clc1cccc2ccccc12) was -2.8 kcal/mol and the “solvation free energy, 298 K” value (in N#CCCCC#N) was -1.67 kcal/mol. For the same compound, the “solvation free energy, 298 K” value (in N#CCCCCC#N) was -1.98 kcal/mol, the “solvation free energy, 298 K” value (in N#CCc1ccccc1) was -2.48 kcal/mol and the “solvation free energy, 298 K” value (in N#Cc1ccccc1) was -2.89 kcal/mol. For the same compound, the “solvation free energy, 298 K” value (in NCc1ccccc1) was -2.67 kcal/mol, the “solvation free energy, 298 K” value (in Nc1ccccc1) was -2.3 kcal/mol and the “solvation free energy, 298 K” value (in O) was 1.37 kcal/mol. The “solvation free energy, 298 K” value (in O=C1CCCCC1) was -3.09 kcal/mol, the “solvation free energy, 298 K” value (in O=C(O)C(Cl)Cl) was -2.63 kcal/mol and the “solvation free energy, 298 K” value (in OCCO) was -0.76 kcal/mol. For the same compound, the “solvation free energy, 298 K” value (in OCc1ccccc1) was -2.44 kcal/mol.
With `c1cc[nH]c1` the “solvation free energy, 298 K” value (in O) was -4.78 kcal/mol.
With `CC1=CC2C(=CC1)C(C)CCC2C(C)C` (centres undefined) the “solvation free energy, 298 K” value (in O) was -0.26 kcal/mol.
With `CCC1(c2ccccc2)C(=O)NC(=O)NC1=O` the “solvation free energy, 298 K” value (in O) was -15.4 kcal/mol.
For `C=C(C)CCC`, the “solvation free energy, 298 K” value (in O) was 1.46 kcal/mol.
With `OCc1ccccc1O` the “solvation free energy, 298 K” value (in O) was -10.2 kcal/mol.
For `NC1CCCCC1`, the “solvation free energy, 298 K” value (in C1CCCCC1) was -5.47 kcal/mol.
With `N#Cc1cccnc1` the “solvation free energy, 298 K” value (in O) was -6.75 kcal/mol.
For `CC1=CCC2C(C1)C2(C)C` (centres undefined), the “solvation free energy, 298 K” value (in O) was 0.79 kcal/mol.
For `CCCCCCl`, the “solvation free energy, 298 K” value (in C1CCOC1) was -5.67 kcal/mol, the “solvation free energy, 298 K” value (in C1CCOCC1) was -5.23 kcal/mol and the “solvation free energy, 298 K” value (in C1COCCO1) was -4.94 kcal/mol. For the same compound, the “solvation free energy, 298 K” value (in C=CCCCCCCCCCCCCCC) was -4.46 kcal/mol, the “solvation free energy, 298 K” value (in CC(C)=O) was -4.86 kcal/mol and the “solvation free energy, 298 K” value (in CCCCCC) was -4.76 kcal/mol. The “solvation free energy, 298 K” value (in CCCCCCCCC=CCCCCCCCC(=O)OCC(COC(=O)CCCCCCCC=CCCCCCCCC)OC(=O)CCCCCCCC=CCCCCCCCC) was -4.62 kcal/mol, the “solvation free energy, 298 K” value (in CCCCCCCCCCCCCCCC) was -4.39 kcal/mol and the “solvation free energy, 298 K” value (in CCCCOCCCC) was -4.79 kcal/mol. For the same compound, the “solvation free energy, 298 K” value (in O) was -0.06 kcal/mol.
With `CC(=O)OC(C)OC(C)=O` the “solvation free energy, 298 K” value (in O) was -4.97 kcal/mol.
With `c1ccc2cc3c(ccc4ccccc43)cc2c1` the “solvation free energy, 298 K” value (in O) was -6.26 kcal/mol.
For `COc1ccc(C(=O)N(C)C)cc1`, the “solvation free energy, 298 K” value (in O) was -11 kcal/mol.
In the case of `O=C(c1ccccc1)N(O)c1ccccc1`, the “solvation free energy, 298 K” value (in O) was -11.3 kcal/mol.
For `CC(=O)C(C)(C)C`, the “solvation free energy, 298 K” value (in CCCCCC) was -4.34 kcal/mol, the “solvation free energy, 298 K” value (in CCCCCCC) was -4.3 kcal/mol and the “solvation free energy, 298 K” value (in CCCCCCCC) was -4.21 kcal/mol. The “solvation free energy, 298 K” value (in CCCCCCCCCC) was -4.15 kcal/mol and the “solvation free energy, 298 K” value (in O) was -3.11 kcal/mol.
For `COC(C)OC`, the “solvation free energy, 298 K” value (in O) was -3.26 kcal/mol.
In the case of `CCCCCCCCCCCCOC(=O)c1ccccc1C(=O)OCCCCCCCCCCCC`, the “solvation free energy, 298 K” value (in O) was -5.92 kcal/mol.
In the case of `Clc1cc(Cl)c(-c2cc(Cl)c(Cl)c(Cl)c2Cl)cc1Cl`, the “solvation free energy, 298 K” value (in CCCCCCCCO) was -13.9 kcal/mol and the “solvation free energy, 298 K” value (in O) was -3.53 kcal/mol.
In the case of `Cc1ccc(C(C)C)cc1`, the “solvation free energy, 298 K” value (in COCCO) was -5.72 kcal/mol, the “solvation free energy, 298 K” value (in CS(C)=O) was -5.55 kcal/mol and the “solvation free energy, 298 K” value (in O) was -0.67 kcal/mol.
With `CCCCCCNCc1ccc(C)cc1` the “solvation free energy, 298 K” value (in O) was -4.97 kcal/mol.
For `CCOP(=S)(OCC)Oc1cc(C)nc(C(C)C)n1`, the “solvation free energy, 298 K” value (in O) was -6.48 kcal/mol.
With `OC(Cl)CCCl` (centres undefined) the “solvation free energy, 298 K” value (in CCCCCCCCCCO) was -7 kcal/mol.
In the case of `CC(=O)OCC=C(C)CCC=C(C)CCC=C(C)C`, the “solvation free energy, 298 K” value (in O) was -3.96 kcal/mol.
In the case of `CC1CCC2(C(C)C)CC12` (centres undefined), the “solvation free energy, 298 K” value (in O) was 1.13 kcal/mol.
For `CC(C(=O)O)c1ccc2c(c1)[nH]c1ccc(Cl)cc12` (centres undefined), the “solvation free energy, 298 K” value (in O) was -15.1 kcal/mol.
For `CCCCC(=O)CC(C)=O`, the “solvation free energy, 298 K” value (in O) was -4.28 kcal/mol.
With `Oc1cccc2cccnc12` the “solvation free energy, 298 K” value (in O) was -6.06 kcal/mol.
With `CC(=O)CCCCC(C)C` the “solvation free energy, 298 K” value (in NC=O) was -5.09 kcal/mol and the “solvation free energy, 298 K” value (in O) was -2.84 kcal/mol.
With `C=C(C)C1CC=C(C)C(OC(=O)CCC)C1` (centres undefined) the “solvation free energy, 298 K” value (in O) was -3.9 kcal/mol.
In the case of `Cc1cccnc1C`, the “solvation free energy, 298 K” value (in O) was -4.82 kcal/mol.
For `C=CC=CC`, the “solvation free energy, 298 K” value (in N#Cc1ccccc1) was -3.26 kcal/mol.

Reference: the CombiSolv-Exp solvation set (Vermeire and Green 2021)
